Experimental data: the supplement of paper PMC10307832

Experiments:
Experiment in all cases: relative viability (nuclei count vs DMSO), 5 days (fraction); higher = more cells survive
Bexarotene + Palbociclib = compound: C=C(c1ccc(C(=O)O)cc1)c1cc2c(cc1C)C(C)(C)CCC2(C)C [Bexarotene] + CC(=O)c1c(C)c2cnc(Nc3ccc(N4CCNCC4)cn3)nc2n(C2CCCC2)c1=O [Palbociclib] (partner 0.5 µM)
In short: (§1)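 Relative viability divides the nuclei count in treated wells by that in vehicle wells. Lung cancer cell lines were seeded in 1536-well plates, dosed by pin tool the next day, and fixed and stained after 5 days in one step with final 0.05% Triton X-100, 1% formaldehyde and 1 ug/ml Hoechst. Dosing was a single drug or a fixed anchor-drug dose plus five library-drug doses (not always all listed) in √10 steps, and values are medians of duplicate plates imaged at 4×.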

Bexarotene + Luminespib = compound: C=C(c1ccc(C(=O)O)cc1)c1cc2c(cc1C)C(C)(C)CCC2(C)C [Bexarotene] + CCNC(=O)c1noc(-c2cc(C(C)C)c(O)cc2O)c1-c1ccc(CN2CCOCC2)cc1 [Luminespib] (partner 0.01 µM)
In short: as §1

Bexarotene + OSI-027 = compound: C=C(c1ccc(C(=O)O)cc1)c1cc2c(cc1C)C(C)(C)CCC2(C)C [Bexarotene] + COc1cccc2cc(-c3nc([C@H]4CC[C@H](C(=O)O)CC4)n4ncnc(N)c34)[nH]c12 [OSI-027] (partner 0.5 µM)
In short: as §1

Bexarotene + Pictilisib = compound: C=C(c1ccc(C(=O)O)cc1)c1cc2c(cc1C)C(C)(C)CCC2(C)C [Bexarotene] + CS(=O)(=O)N1CCN(Cc2cc3nc(-c4cccc5[nH]ncc45)nc(N4CCOCC4)c3s2)CC1 [Pictilisib] (partner 1 µM)
In short: as §1

Cell Line | relative viability (Bexarotene + Palbociclib; first compound 0.08 µM) | relative viability (Bexarotene + Palbociclib; first compound 0.253 µM) | relative viability (Bexarotene + Palbociclib; first compound 0.8 µM) | relative viability (Bexarotene + Palbociclib; first compound 2.53 µM) | relative viability (Bexarotene + Palbociclib; first compound 8 µM) | relative viability (Bexarotene + Luminespib; first compound 0.08 µM) | relative viability (Bexarotene + Luminespib; first compound 0.253 µM) | relative viability (Bexarotene + Luminespib; first compound 0.8 µM) | relative viability (Bexarotene + Luminespib; first compound 2.53 µM) | relative viability (Bexarotene + Luminespib; first compound 8 µM) | relative viability (Bexarotene + OSI-027; first compound 0.08 µM) | relative viability (Bexarotene + OSI-027; first compound 0.253 µM) | relative viability (Bexarotene + OSI-027; first compound 0.8 µM) | relative viability (Bexarotene + OSI-027; first compound 2.53 µM) | relative viability (Bexarotene + OSI-027; first compound 8 µM) | relative viability (Bexarotene + Pictilisib; first compound 0.08 µM) | relative viability (Bexarotene + Pictilisib; first compound 0.253 µM) | relative viability (Bexarotene + Pictilisib; first compound 0.8 µM) | relative viability (Bexarotene + Pictilisib; first compound 2.53 µM) | relative viability (Bexarotene + Pictilisib; first compound 8 µM)
COR-L23 | 0.283 | 0.274 | 0.279 | 0.257 | 0.274 | 0.795 | 0.786 | 0.565 | 0.629 | 0.618 | 0.807 | 0.883 | 0.579 | 0.679 | 0.715 | 0.735 | 0.759 | 0.5 | 0.67 | 0.52
NCI-H1755 | 0.463 | 0.479 | 0.438 | 0.48 | 0.44 | 0.391 | 0.504 | 0.679 | 0.52 | 0.438 | 0.777 | 0.741 | 0.675 | 0.637 | 0.611 | 0.457 | 0.454 | 0.356 | 0.37 | 0.337
NCI-H1437 | 0.317 | 0.306 | 0.294 | 0.291 | 0.286 | 1.05 | 1.07 | 1.15 | 1.07 | 1.1 | 0.985 | 0.819 | 1.01 | 0.89 | 0.982 | 0.572 | 0.447 | 0.56 | 0.601 | 0.542
NCI-H2085 | 0.411 | 0.434 | 0.415 | 0.374 | 0.383 | 0.451 | 0.556 | 0.374 | 0.457 | 0.378 | 0.841 | 0.718 | 0.642 | 0.675 | 0.704 | 0.449 | 0.461 | 0.431 | 0.386 | 0.476
H3255 | 0.333 | 0.335 | 0.316 | 0.344 | 0.346 | 0.869 | 0.935 | 1.01 | 0.785 | 0.954 | 0.714 | 0.538 | 0.598 | 0.585 | 0.6 | 0.574 | 0.504 | 0.607 | 0.493 | 0.528
NCI-H650 | 0.306 | 0.286 | 0.294 | 0.311 | 0.339 | 0.779 | 0.828 | 0.877 | 0.898 | 0.742 | 0.516 | 0.521 | 0.523 | 0.485 | 0.494 | 0.946 | 0.939 | 0.851 | 0.753 | 0.858
LCLC-103H | 0.495 | 0.544 | 0.453 | 0.476 | 0.475 | 1.08 | 0.935 | 0.885 | 1.04 | 0.846 | 0.522 | 0.434 | 0.354 | 0.461 | 0.448 | 0.71 | 0.642 | 0.529 | 0.653 | 0.631
LOU-NH91 | 0.544 | 0.507 | 0.485 | 0.528 | 0.551 | 0.364 | 0.318 | 0.346 | 0.287 | 0.268 | 0.709 | 0.718 | 0.606 | 0.599 | 0.643 | 0.546 | 0.537 | 0.508 | 0.492 | 0.505
NCI-H1650 | 0.355 | 0.285 | 0.279 | 0.271 | 0.282 | 0.195 | 0.183 | 0.219 | 0.225 | 0.231 | 0.612 | 0.734 | 0.598 | 0.726 | 0.622 | 0.669 | 0.544 | 0.527 | 0.537 | 0.527
NCI-H3122 | 0.225 | 0.216 | 0.187 | 0.254 | 0.23 | 0.0956 | 0.0599 | 0.0864 | 0.0982 | 0.0732 | 1.09 | 1.09 | 1.05 | 0.989 | 1.07 | 0.82 | 0.821 | 0.647 | 0.855 | 0.802
PC-3 [JPC-3] | 0.556 | 0.514 | 0.492 | 0.471 | 0.493 | 0.645 | 0.618 | 0.635 | 0.775 | 0.616 | 0.816 | 0.798 | 0.604 | 0.733 | 0.676 | 0.868 | 0.749 | 0.519 | 0.656 | 0.666
NCI-H1651 | 0.531 | 0.521 | 0.533 | 0.537 | 0.534 | 1.06 | 0.881 | 0.938 | 0.845 | 0.911 | 0.843 | 0.717 | 0.71 | 0.702 | 0.744 | 0.837 | 0.52 | 0.723 | 0.674 | 0.593
NCI-H2087 | 0.254 | 0.238 | 0.198 | 0.274 | 0.226 | 0.174 | 0.169 | 0.175 | 0.139 | 0.142 | 0.643 | 0.693 | 0.663 | 0.565 | 0.448 | 1.03 | 0.941 | 0.91 | 0.786 | 0.818
